Data as given in paper PMC10941402, “Abcg2a is the functional homolog of human ABCG2 expressed at the zebrafish blood–brain barrier” (Fluids and Barriers of the CNS, 2024).

Experiments:
[1] = test system: T1, Abcg2d; test: cells; set-up: species or system HEK-293; CellTiter-Glo growth inhibition of transporter-transfected HEK-293 cells, luminescence; conditions: Homo sapiens, HEK293, 72 h; cells expressing zebrafish Abcg2d
T1 construct: HEK-293 HEK-293 stably expressing full-length FLAG-tagged zebrafish Abcg2d
Experimental: (§1) Trypsinized cells were plated at 5,000 cells/well in white opaque 96-well plates and allowed to adhere overnight. Drugs were then added, with each concentration tested in triplicate, and cells were incubated for 72 h. Cell growth was assessed using the CellTiter-Glo (Promega, Madison, WI) reagent, according to the manufacturer’s instructions. Luminescence was measured on a Tecan Infinite M200 Pro microplate reader (Tecan Group, Morrisville, NC, RRID:SCR_019033). […] Relative resistance (RR) values are the ratio of the GI50 values of the transporter transfected versus the empty vector-transfected HEK-293 cells. HEK-293 cells (ATCC, Manassas, VA, RRID:CVCL_0045) were transfected with empty pcDNA3.1 vector or with vector containing full-length abcg2a (NM_001042775), abcg2b (NM_001039066), abcg2c (XM_005156523) or abcg2d (NM_001042772) (all from Genscript, Piscataway, NJ), flanked by a C-terminal FLAG tag sequence. The R-5 cell line was generated as previously described from HEK-293 cells transfected with full-length ABCG2 [18]. Transfected cells were cultured at 37 °C and at 5% CO2 in EMEM (Quality Biological, Gaithersburg, MD) supplemented with 10% fetal calf serum, penicillin/streptomycin (Quality Biological) and 2 mg/ml G418 (Mediatech, Manassas, VA). To determine if zebrafish Abcg2a-d were able to confer resistance to known cytotoxic substrates of ABCG2, cytotoxicity assays were performed and quantified by the drug concentration that produces 50% cell growth inhibition (GI50). Among the zebrafish Abcg2 homologs, Abcg2a conferred the highest level of resistance to MLN7243 (a ubiquitin activating enzyme inhibitor), MLN4924 (NEDD8 activating enzyme inhibitor), and CUDC-101 (histone deacetylase and receptor tyrosine kinase inhibitor) (Fig. 2, Additional file 5: Table S1). Abcg2d conferred the least resistance to THZ 531 (CDK12/13 inhibitor), CUDC-101, and gedatolisib (an inhibitor of phosphatidylinositol-3-kinase (PI3K) and mammalian target of rapamycin (mTOR)). […] Abcg2b and Abcg2c often conferred similar levels of resistance to the same substates, as evidenced by results with MLN7243, MLN4924, THZ 531, CUDC-101 and gedatolisib.

[2] = test system: T2, Abcg2a; test: cells; set-up: species or system HEK-293; CellTiter-Glo growth inhibition of transporter-transfected HEK-293 cells, luminescence; conditions: Homo sapiens, HEK293, 72 h; cells expressing zebrafish Abcg2a
T2 construct: HEK-293 HEK-293 stably expressing full-length FLAG-tagged zebrafish Abcg2a
Experimental: as §1

[3] = test system: T3, ABCG2; test: cells; set-up: species or system HEK-293; CellTiter-Glo growth inhibition of transporter-transfected HEK-293 cells, luminescence; conditions: HEK293, 72 h; cells expressing human ABCG2
T3 construct: HEK-293 R-5 HEK-293 stably expressing full-length human ABCG2 (R-5)
Experimental: as §1

[4] = test system: T4, Abcg2b; test: cells; set-up: species or system HEK-293; CellTiter-Glo growth inhibition of transporter-transfected HEK-293 cells, luminescence; conditions: Homo sapiens, HEK293, 72 h; cells expressing zebrafish Abcg2b
T4 construct: HEK-293 HEK-293 stably expressing full-length FLAG-tagged zebrafish Abcg2b
Experimental: as §1

[5] = test system: T5, Abcg2c; test: cells; set-up: species or system HEK-293; CellTiter-Glo growth inhibition of transporter-transfected HEK-293 cells, luminescence; conditions: Homo sapiens, HEK293, 72 h; cells expressing zebrafish Abcg2c
T5 construct: HEK-293 HEK-293 stably expressing full-length FLAG-tagged zebrafish Abcg2c
Experimental: as §1

[6] = test system: T6, Empty vector; test: cells; set-up: species or system HEK-293; CellTiter-Glo growth inhibition of transporter-transfected HEK-293 cells, luminescence; conditions: Homo sapiens, HEK293, 72 h
T6 construct: HEK-293 HEK-293 stably transfected with empty pcDNA3.1
Experimental: as §1

[7] = molecular target: T7, Abcg2a (Danio rerio, UniProt Q2Q447); test: flow cytometry efflux assay; assay type: cell-based; conditions: 5 µM substrate, 37 °C, with and without inhibitor
T7 construct: homodimer
T7 sequence (Q2Q447 1-643): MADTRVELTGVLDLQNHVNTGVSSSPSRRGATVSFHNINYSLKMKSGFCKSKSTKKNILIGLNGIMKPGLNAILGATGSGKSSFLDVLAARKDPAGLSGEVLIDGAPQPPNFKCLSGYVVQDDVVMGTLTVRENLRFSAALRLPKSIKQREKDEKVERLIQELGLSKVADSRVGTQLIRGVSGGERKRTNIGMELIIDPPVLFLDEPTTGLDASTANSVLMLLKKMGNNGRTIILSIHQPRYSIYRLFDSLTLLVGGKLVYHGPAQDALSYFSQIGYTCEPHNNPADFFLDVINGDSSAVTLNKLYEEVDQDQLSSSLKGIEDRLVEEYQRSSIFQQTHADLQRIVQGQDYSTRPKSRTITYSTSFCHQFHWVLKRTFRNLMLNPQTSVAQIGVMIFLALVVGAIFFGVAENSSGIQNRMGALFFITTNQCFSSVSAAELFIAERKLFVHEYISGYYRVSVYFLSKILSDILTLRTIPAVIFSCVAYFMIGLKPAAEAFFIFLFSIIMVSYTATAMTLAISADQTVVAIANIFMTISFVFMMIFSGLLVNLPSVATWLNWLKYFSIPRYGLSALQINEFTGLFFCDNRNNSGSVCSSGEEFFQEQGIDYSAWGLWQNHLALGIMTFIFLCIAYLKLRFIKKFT

[8] = molecular target: T8, Abcg2b (Danio rerio, UniProt Q2Q446); test: flow cytometry efflux assay; assay type: cell-based; conditions: 5 µM substrate, 37 °C, with and without inhibitor
T8 construct: homodimer
T8 sequence (Q2Q446 1-618): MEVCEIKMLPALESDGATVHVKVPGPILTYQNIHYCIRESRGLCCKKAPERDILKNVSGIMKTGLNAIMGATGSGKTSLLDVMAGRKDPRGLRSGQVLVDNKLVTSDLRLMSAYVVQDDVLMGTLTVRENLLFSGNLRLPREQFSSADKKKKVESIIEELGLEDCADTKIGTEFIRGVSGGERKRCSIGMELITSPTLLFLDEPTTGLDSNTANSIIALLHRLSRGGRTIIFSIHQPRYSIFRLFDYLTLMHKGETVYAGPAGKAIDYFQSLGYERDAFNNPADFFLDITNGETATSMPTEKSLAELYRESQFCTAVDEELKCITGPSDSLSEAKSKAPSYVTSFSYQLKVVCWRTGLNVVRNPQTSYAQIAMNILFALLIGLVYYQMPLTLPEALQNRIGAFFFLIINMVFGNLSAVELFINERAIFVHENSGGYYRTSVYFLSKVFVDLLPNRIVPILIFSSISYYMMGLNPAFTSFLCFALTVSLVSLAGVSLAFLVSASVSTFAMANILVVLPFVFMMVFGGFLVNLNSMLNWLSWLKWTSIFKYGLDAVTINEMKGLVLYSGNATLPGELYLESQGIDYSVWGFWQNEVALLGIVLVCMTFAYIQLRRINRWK

[9] = molecular target: T9, Abcg2c (Danio rerio, UniProt A0A8M2B3F2); test: flow cytometry efflux assay; assay type: cell-based; conditions: 5 µM substrate, 37 °C, with and without inhibitor
T9 construct: homodimer
T9 sequence (A0A8M2B3F2 1-640): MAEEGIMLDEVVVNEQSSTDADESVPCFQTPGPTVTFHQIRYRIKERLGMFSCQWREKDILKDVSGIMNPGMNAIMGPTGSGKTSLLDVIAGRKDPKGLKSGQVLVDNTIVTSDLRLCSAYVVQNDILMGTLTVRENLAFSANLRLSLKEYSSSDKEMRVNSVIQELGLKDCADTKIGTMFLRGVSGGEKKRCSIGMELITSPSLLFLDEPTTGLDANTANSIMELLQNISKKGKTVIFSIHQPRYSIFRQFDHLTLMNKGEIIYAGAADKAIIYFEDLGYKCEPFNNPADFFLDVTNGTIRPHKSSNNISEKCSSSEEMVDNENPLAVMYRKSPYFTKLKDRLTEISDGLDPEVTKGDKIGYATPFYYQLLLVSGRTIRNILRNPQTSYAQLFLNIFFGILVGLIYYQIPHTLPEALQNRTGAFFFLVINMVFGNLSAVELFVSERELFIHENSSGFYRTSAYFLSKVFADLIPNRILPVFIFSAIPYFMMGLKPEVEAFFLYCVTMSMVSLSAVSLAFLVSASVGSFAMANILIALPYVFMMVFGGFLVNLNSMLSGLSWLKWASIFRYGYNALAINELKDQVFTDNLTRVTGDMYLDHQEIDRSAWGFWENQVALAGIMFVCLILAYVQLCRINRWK

[10] = molecular target: T10, ABCG2 (Homo sapiens, UniProt Q9UNQ0); test: flow cytometry efflux assay; assay type: cell-based; conditions: 5 µM substrate, 37 °C, with and without inhibitor
T10 construct: homodimer
T10 sequence (Q9UNQ0 1-655): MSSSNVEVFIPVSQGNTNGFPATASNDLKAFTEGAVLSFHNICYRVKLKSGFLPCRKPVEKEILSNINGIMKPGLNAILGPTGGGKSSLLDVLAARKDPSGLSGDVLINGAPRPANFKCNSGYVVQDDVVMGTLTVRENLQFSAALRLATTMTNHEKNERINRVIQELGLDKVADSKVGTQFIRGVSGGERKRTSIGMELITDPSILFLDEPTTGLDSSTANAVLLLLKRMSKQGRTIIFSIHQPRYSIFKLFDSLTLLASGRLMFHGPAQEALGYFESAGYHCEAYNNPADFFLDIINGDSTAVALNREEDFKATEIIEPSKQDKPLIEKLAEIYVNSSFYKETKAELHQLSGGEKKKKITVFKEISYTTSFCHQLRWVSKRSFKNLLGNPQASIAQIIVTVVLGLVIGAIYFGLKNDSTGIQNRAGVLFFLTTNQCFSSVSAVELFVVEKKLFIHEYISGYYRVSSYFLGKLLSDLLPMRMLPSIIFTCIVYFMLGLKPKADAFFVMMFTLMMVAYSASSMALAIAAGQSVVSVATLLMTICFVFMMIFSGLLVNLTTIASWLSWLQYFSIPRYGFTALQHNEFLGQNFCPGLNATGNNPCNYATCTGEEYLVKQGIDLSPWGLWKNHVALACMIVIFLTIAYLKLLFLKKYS

Row | SMILES | GI50 [1] [nM] | GI50 [2] [nM] | GI50 [3] [nM] | GI50 [4] [nM] | GI50 [5] [nM] | GI50 [6] [nM] | flow cytometry efflux assay [7] | flow cytometry efflux assay [8] | flow cytometry efflux assay [9] | flow cytometry efflux assay [10]
1 | C#Cc1cccc(Nc2ncnc3cc(OC)c(OCCCCCCC(=O)NO)cc23)c1 [CUDC-101] | 1040 ± 260 | 5420 ± 1400 | 11300 ± 2000 | 2090 ± 190 | 1690 ± 290 | 780 ± 100 |  |  |  | 
2 | CN(C)C1CCN(C(=O)c2ccc(NC(=O)Nc3ccc(-c4nc(N5CCOCC5)nc(N5CCOCC5)n4)cc3)cc2)CC1 [Gedatolicib, gedatolisib] | 820 ± 500 | 1390 ± 190 | 3840 ± 1500 | 4060 ± 1500 | 3260 ± 490 | 200 ± 10 |  |  |  | 
3 | NS(=O)(=O)OC[C@@H]1C[C@@H](n2ccc3c(N[C@H]4CCc5ccccc54)ncnc32)C[C@@H]1O [MLN 4924] | 353 ± 190 | 2440 ± 170 | 7320 ± 1700 | 520 ± 52 | 487 ± 40 | 420 ± 90 |  |  |  | 
4 | NS(=O)(=O)OC[C@H]1C[C@@H](Nc2ccnc3cc(-c4cccc(SC(F)(F)F)c4)nn23)[C@H](O)[C@@H]1O [MLN 7243] | 179 ± 23 |  | 15400 ± 220 | 151 ± 51 | 200 ± 20 | 69 ± 5 |  |  |  | 
5 | Cc1nc(Nc2[nH]nc3c2CN(C(=O)N[C@H](CN(C)C)c2ccccc2)C3(C)C)c2sccc2n1 [PF-3758309] | 1540 ± 650 | 1260 ± 530 | 2360 ± 540 | 413 ± 150 | 1970 ± 710 | 68 ± 30 |  |  |  | 
6 | CN(C)C/C=C/C(=O)Nc1ccc(C(=O)N2CCC[C@@H](Nc3ncc(Cl)c(-c4c[nH]c5ccccc45)n3)C2)cc1 [THZ 531] | 3990 ± 240 | 18300 ± 3600 | 65900 ± 3700 | 10500 | 11400 ± 1000 | 1290 ± 140 |  |  |  | 
7 | O=C1c2c(O)ccc(O)c2C(=O)c2c(NCCNCCO)ccc(NCCNCCO)c21 [mitoxantrone] |  |  |  |  |  |  | rightward inhibited peak shift for Abcg2a with mitoxantrone |  |  | 
8 | C=Cc1c(C)c2cc3nc(c4c5[nH]c(cc6nc(cc1[nH]2)C(C)=C6CC)c(C)c5C(=O)[C@@H]4C(=O)OC)[C@@H](CCC(=O)O)[C@@H]3C [pheophorbide a] |  |  |  |  |  |  | to a greater extent with pheophorbide a, indicating Abcg2a can efflux both substrates | Pheophorbide a also appears to be a substrate for Abcg2b and Abcg2c | Pheophorbide a also appears to be a substrate for Abcg2b and Abcg2c | ABCG2-expressing cells exhibit an increase in intracellular fluorescence
